Experimental data from patent US8871460B2, “Gamma-secretase modulatory compounds, methods for identifying same, and uses therefor” (Neurogenetic Pharmaceuticals, Inc., priority 2009, dated 2014).

How the values were obtained:
Pen-2 [1] = assay: Compound 1-conjugated Affi-Gel resin pull-down from CHO-APPSwe whole-cell lysate, immunoblot; type: binding, Chinese Hamster
Procedure: (§1) Compound 1, which bears a primary amine, was conjugated to Affi-Gel 10 resin (BioRad #153-6046) according to manufacturer's instructions. Compound 1 was dissolved in DMSO to a final concentration of 15 mg/ml. One ml of compound was mixed with approximately 1 ml of resin previously equilibrated in isopropanol. The compound and resin were rotated at room temperature for approximately 3 hr, washed with DMSO and the remaining unreacted groups were blocked with ethanolamine. The efficiency of coupling was generally greater than 80%, as determined by LC-MS analysis, with approximately 10-15 μmol of compound per ml of resin final concentration.
(§2) Solubilized whole-cell lysates from CHO-APPSwe cells (Chinese Hamster Ovary cells expressing human APP^695 with the K670N/M671L “Swedish” mutation) were prepared in PLC buffer (20 mM Hepes pH 7.5, 1 mM EDTA, 150 mM NaCl, 1% Triton X-100, 0.2% Tween-20). Lysates were pre-cleared by incubating with 200 μl of blocked resin at 4° C. for 1 hr. The resin was pelleted and the resulting lysate was centrifuged at 13,000×g for 15 min to pellet any protein precipitates. One mg (approximately 2 mg/ml) of the pre-cleared whole cell lysate was incubated with 100 μl of either Compound 1-conjugated resin, or with unconjugated resin, for two hours at room temperature, with constant rotation. After incubation, the resin was pelleted at low speed and the supernatant (i.e. unbound proteins) collected. The resin was washed 3-5 times with 1 ml of PLC buffer. Bound proteins were eluted with 200-300 μl aliquots of SDS denaturing sample buffer (0.25 M Tris-HCl, pH 6.8; 5% (w/v) SDS; 0.05% bromophenol blue; 10% glycerol; 2.5% 2-mercaptoethanol). Equal volumes of whole cell lysate (WCL) and supernatant in SDS denaturing sample buffer, as well as eluates from each resin, were run in separate lanes on a 4-20% SDS-PAGE gel. The electrophoresed proteins were transferred to a nitrocellulose membrane (Invitrogen #LC2001) and immunoblotted with antibodies that specifically recognize either Pen-2 (PNT2; gift of Gopal Thinakaran, see Luo et al. (2003), J. Biol. Chem. 278:7850-7854), presenilin 1 N-terminal fragment (PS1-NTF; gift of Gopal Thinakaran), presenilin 1 C-terminal fragment (PS1-CTF; Calbiochem #529592), nicastrin (Nct; Sigma #N-1660), amyloid precursor protein (APP; antibody R8666, PCT publication WO 04/018997) or phopholipase C-gamma (PLCγ; Upstate #06-152).

nicastrin (Nct) = assay: as above; type: binding, Chinese Hamster
Procedure: as §1, §2

[2] = system: phopholipase C-gamma (PLCγ); assay: as above; type: binding, Chinese Hamster
Procedure: as §1, §2

[3] = system: presenilin 1 C-terminal fragment (PS1-CTF); assay: as above; type: binding, Chinese Hamster
Procedure: as §1, §2

[4] = system: presenilin 1 N-terminal fragment (PS1-NTF); assay: as above; type: binding, Chinese Hamster; conditions: some present in eluate, not substantially depleted from starting lysate
Procedure: as §1, §2

[5] = molecular target: T1, APP holoenzyme (APP-Holo) (Homo sapiens, UniProt P05067, K670N/M671L); assay: as above; type: binding
T1 construct: expressed in transfected cells; host or cells: CHO (Chinese Hamster Ovary)
Procedure: as §1
Solubilized whole-cell lysates from CHO-APPSwe cells (Chinese Hamster Ovary cells expressing human APP^695 with the K670N/M671L “Swedish” mutation) were prepared in PLC buffer (20 mM Hepes pH 7.5, 1 mM EDTA, 150 mM NaCl, 1% Triton X-100, 0.2% Tween-20). Lysates were pre-cleared by incubating with 200 μl of blocked resin at 4° C. for 1 hr. The resin was pelleted and the resulting lysate was centrifuged at 13,000×g for 15 min to pellet any protein precipitates. One mg (approximately 2 mg/ml) of the pre-cleared whole cell lysate was incubated with 100 μl of either Compound 1-conjugated resin, or with unconjugated resin, for two hours at room temperature, with constant rotation. […]

Pen-2 [6] = molecular target: T2, Pen-2 (Homo sapiens, UniProt Q9NZ42); assay: Binding of Compound 1 to Pen-2 in lysates prepared from PS1-deficient cells
T2 construct: endogenous in cells; host or cells: PS1-deficient cells (not further described)

GST = molecular target: T3, GST (Schistosoma japonicum, UniProt P08515); assay: Compound 1-conjugated Affi-Gel resin binding of isolated protein, immunoblot
T3 construct: purchased Abnova Corp
Procedure: (§3) Prior to assessing binding to Compound 1, the proteins used in the binding assay were characterized. Purified GST (Abnova Corp) and GST-Pen2 (Abnova Corp #H00055851-PO1) proteins were confirmed to react with anti-GST (Novagen #71097-3) and anti-Pen-2 (PNT2) antibodies on an immunoblot. […] To prepare purified Pen-2, about 1 μg of GST-Pen-2 was incubated with 4 μg of PreScission™ protease for 4 hr at 4° C. in Cleavage Buffer (50 mM Tris pH 7.4, 150 mM NaCl, 1 mM EDTA, 1% Triton X-100, 10% glycerol, 1 mg/ml phosphatidylcholine). Free GST and protease were removed by adding glutathione resin (Sigma #G4510) for 1 hr with rotation, and spinning down the resin. The supernatant, containing purified Pen-2, was collected.
(§4) Compound 1-conjugated and unconjugated Affi-Gel 10 resins were prepared essentially as described in Example 1. […]

Purified Pen-2 = molecular target: T4, Purified Pen-2 (Homo sapiens, UniProt Q9NZ42); assay: as above; conditions: elute lane, vs unconjugated resin
T4 construct: GST (N, cleaved yes); purchased Abnova Corp H00055851-PO1
Procedure: as §3, §4

GST-Pen2 = GST-Pen2 (Homo sapiens, UniProt Q9NZ42); assay: as above; parameters: purchased Abnova Corp H00055851-PO1; conditions: elute lane, vs unconjugated resin
Procedure: as §3, §4

T1 sequence (P05067 other isoform, or with tags, fused parts or gaps K595N/M596L): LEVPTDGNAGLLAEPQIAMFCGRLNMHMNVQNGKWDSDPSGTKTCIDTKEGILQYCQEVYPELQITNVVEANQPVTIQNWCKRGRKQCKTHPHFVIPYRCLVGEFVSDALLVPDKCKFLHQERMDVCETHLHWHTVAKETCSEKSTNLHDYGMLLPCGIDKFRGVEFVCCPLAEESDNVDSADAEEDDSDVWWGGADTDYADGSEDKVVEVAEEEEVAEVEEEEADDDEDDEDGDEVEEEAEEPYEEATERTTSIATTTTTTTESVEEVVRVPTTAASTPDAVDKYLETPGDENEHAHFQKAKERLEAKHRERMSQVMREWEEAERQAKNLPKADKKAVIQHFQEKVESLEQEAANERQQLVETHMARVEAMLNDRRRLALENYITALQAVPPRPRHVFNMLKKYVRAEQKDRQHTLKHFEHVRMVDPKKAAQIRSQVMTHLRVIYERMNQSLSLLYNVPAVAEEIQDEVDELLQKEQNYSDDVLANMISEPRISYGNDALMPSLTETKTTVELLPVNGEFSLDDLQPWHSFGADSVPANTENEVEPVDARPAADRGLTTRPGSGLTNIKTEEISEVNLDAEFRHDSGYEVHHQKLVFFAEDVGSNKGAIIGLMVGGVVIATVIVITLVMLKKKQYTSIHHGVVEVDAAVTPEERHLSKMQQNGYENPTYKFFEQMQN
T2 sequence (Q9NZ42 whole entry): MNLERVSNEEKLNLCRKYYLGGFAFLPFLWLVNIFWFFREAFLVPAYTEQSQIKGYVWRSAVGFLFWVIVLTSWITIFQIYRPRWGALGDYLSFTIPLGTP
Chain of GST-Pen2 (Q9NZ42 whole entry): as above
T4 sequence (Q9NZ42 whole entry): as above
T3 sequence (P08515 whole entry): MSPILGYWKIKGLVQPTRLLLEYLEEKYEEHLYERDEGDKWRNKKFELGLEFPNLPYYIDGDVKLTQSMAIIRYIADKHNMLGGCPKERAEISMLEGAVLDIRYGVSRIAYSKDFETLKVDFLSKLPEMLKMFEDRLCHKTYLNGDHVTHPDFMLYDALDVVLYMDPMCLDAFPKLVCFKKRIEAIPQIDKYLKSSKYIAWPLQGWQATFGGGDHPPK

## Cc1cn(-c2ccc(-c3csc(Nc4cc(C(C)C)c(OCCN)cc4C)n3)cc2F)cn1 [Compound 1]
Pen-2 [1]
  depletion of Pen-2 from whole cell lysate applied to the Compound 1-conjugated column: substantially depleted
Pen-2 [1]; Compound 1-conjugated vs unconjugated Affi-Gel 10 resin, 2 h room temperature
  Pen-2 in SDS eluate from resin: present in the SDS eluate from the Compound 1-conjugated resin, but not from the unconjugated resin
Nicastrin (Nct)
  binding of Nct to Compound 1-conjugated resin: did not bind
[2]
  binding of PLCγ to Compound 1-conjugated resin: did not bind
[3]
  binding of PS1-CTF to Compound 1-conjugated resin: did not bind
[4]
  binding of N-terminal fragment (NTF) of PS1 to Compound 1: minimal binding
[5]
  binding of APP-Holo to Compound 1-conjugated resin: did not bind
Pen-2 [6]
  binding to Pen-2 present in lysates prepared from PS1-deficient cells: demonstrated binding
GST
  binding of GST to Compound 1 resin: did not bind
Purified Pen-2
  binding of purified Pen-2 to Compound 1-conjugated resin: selectively bind
GST-Pen2
  binding of GST-Pen-2 to Compound 1-conjugated resin: selectively bind
